According to patent US10765754B2, “Compositions and methods related to inhibition of respiratory syncytial virus entry” (priority 2015, dated 2020):
Like-named read-outs stand apart in the source and are kept apart here. Starred links: 1 amine or outer side, 2 acyl side, 3 side chain; linkers in the order of their positions; H or OH if unused. Positions of bridges follow the written chain, without caps; N, C: chain ends. Non-standard residues stand in square brackets, D forms with d. Residues, ends and D or L forms follow the SMILES beside them. Chains are numbered I, II in the order given. X1 = NCCOCCOCCOCCOCCOCCOCCOCCOCCOCCOCCOCCOCCOCCOCCOCCOCCOCCOCCOCCOCCOCCOCCOCCOCCOCCOCCOCCOCCC(=O)NC(CCC(=O)[*:1])(CCC(=O)[*:2])CCC(=O)[*:3]; X2 = CC(COCCC(=O)[*:1])(COCCC(=O)[*:2])COCCC(=O)[*:3]; PEG6 = NCCOCCOCCOCCOCCOCCOCCC(=O)O

Assays:
RSV-B/IZN45 = biological target: T1, RSV-B/IZN45 (Human respiratory syncytial virus B, UniProt O36634); assay: biochemical; assay type: binding
T1 construct: N-trimer Mimics Synthesized; made in house; host or cells: chemical peptide synthesis
Description: (§1) IZN45 N-trimer mimic comprises the IZ domain, a highly soluble, designed coiled-coil that helps solubilize the N-trimer, along with the C-terminal (bottom) 45 residues of the RSV N-trimer. IZN45 encompasses the full ordered portion of the N-trimer except for three N-terminal residues (removed to maintain a continuous heptad repeat with the IZ domain). The interactions between 35-residue RSV C-peptides, T108 and T118 (Lambert et al., 1996, Proc. Natl. Acad. Sci. USA 93:2186-2191), and IZN45 was examined by surface plasmon resonance (SPR). SPR is a gold standard assay to measure the kinetics and affinity of biological interactions. […] The Biotinylated L-form of RSV target IZN45 was captured onto one lane of a NeutrAvidin coated SPR chip. A mutant version of IZN45 containing four mutated residues along the N-trimer groove designed to disrupt binding (IZN45 Full Mut, negative control) was captured onto a separate lane of the NeutrAvidin chip. T118, corresponding to the C-terminal portion of the RSV F ectodomain, which is known to interact with the RSV N-trimer groove, was flowed over the various surfaces. […] The surfaces were regenerated with a detergent (0.1% SDS) after each injection of analyte. Various concentrations of T118 were measured in duplicate or triplicate injections. D-peptide interactions with IZN45 and IZN45-Full Mut surfaces were also measured using this method.
(§2) Peptides from the ‘winning’ phage clones from each library were synthesized as D-peptides. If solubility of the peptides was limited, N- or C-terminal charged residue(s) (e.g., lysine) were attached as necessary as previously described for HIV peptides in Eckert et al., 1999, Cell 99:103-15, incorporated by reference in its entirety. Binding affinity and kinetics of the D-peptide inhibitors to the IZN45 and IZN45 mutants was characterized by SPR (Biacore 3000), using methods as described in Welch et al., 2007, Proc. Natl. Acad. Sci. USA 104:16828-33, incorporated by reference in its entirety.

RSV-A/IZN45 = biological target: T2, RSV-A/IZN45 (Human respiratory syncytial virus A, UniProt P03420); assay: SPR binding to RSV-A IZN45 N-trimer mimic
T2 construct: N-trimer Mimics Synthesized; made in house; host or cells: chemical peptide synthesis
Description: as §1, §2

RSV-A F protein = biological target: T3, RSV-A F protein (Human respiratory syncytial virus A, UniProt P03420); assay: cell-based
T3 construct: expressed in transfected cells; host or cells: 293 T cells
Experimental: The RSV Syncytia reduction assay was used to evaluate D-peptide inhibitors of RSV entry (IC50). In brief, 293 T cell were plated in a 96-well plate and a 6-well plate. The cells in the 96-well plate were co-transfected with DNA encoding the RSV F protein (or RSV G protein as a negative control) and DNA encoding firefly luciferase downstream of multiple GAL4 binding sites (CheckMate Mammalian Two-Hybrid system, Promega). These cells were designated the effector cells. The cells in the 6-well plate were transfected with GAL4:Id and VP16:MyoD fusion constructs, which interact and drive gene expression in the presence of GAL4 binding sites. These cells were the target cells. At 24 hours post-transfection, the media is removed from the effector cells and D-peptide inhibitors at 2× concentration (diluted in fresh media) were added. Also at 24 hours post-transfection, the target cells are washed with PBS, gently dissociated from the 6-well plate using Versene (0.48 mM EDTA in PBS), and overlaid (at equal volume) onto the effector cells containing 2× inhibitor. At 48 h post-transfection, the cells are lysed using Glo Lysis Buffer (Promega). Bright Glo luciferase assay substrate is added and luminescent signal from expressed luciferase is measured. Luciferase is only expressed in effector cells that fuse (form syncytia) with target cells.

[1] = tested on: RSVA-IZN45 (SEQ ID NO: 34); settings: Table 8 Result column
Description: AC-K-(PEG4)DDG-RSVP32 (SEQ ID NO:142) is an affinity matured RSV N-trimer binder identified from phage display and represents an optimized binding solution from a disulfide constrained CX10C (disulfide constrained 10-mer) library based on the 20 natural amino acids. […] Using the co-crystal structure of RSVP32 (SEQ ID NO:31) and RSVA-IZN21 (SEQ ID NO:34), a molecular-modeling suite (ICM-Pro, MolSoft LLC) was used to model various natural and non-natural amino acid substitutions and calculate binding energies. The following parameters were used to calculate binding energy: electrostatic boundary element energy, H-bonds, solvation energy estimated as surface tension, and side-chain entropy.

[2] = (L) inhibitors of RSV, controls for D-peptide studies, assay not stated in Table 6, read-out: IC50
[3] = IC50, (L) inhibitors of RSV, controls for D-peptide studies, assay not stated in Table 6
[4] = Kd, subsequent trimer/compound made from peptide, RSV-A/IZN45, SPR
[5] = IC50, subsequent trimer/compound made from peptide, syncytia reduction assay using RSV-A F protein

T1 sequence (O36634 163-207, added parts left off): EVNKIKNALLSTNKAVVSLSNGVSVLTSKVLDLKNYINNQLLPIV
T3 sequence (P03420 137-574): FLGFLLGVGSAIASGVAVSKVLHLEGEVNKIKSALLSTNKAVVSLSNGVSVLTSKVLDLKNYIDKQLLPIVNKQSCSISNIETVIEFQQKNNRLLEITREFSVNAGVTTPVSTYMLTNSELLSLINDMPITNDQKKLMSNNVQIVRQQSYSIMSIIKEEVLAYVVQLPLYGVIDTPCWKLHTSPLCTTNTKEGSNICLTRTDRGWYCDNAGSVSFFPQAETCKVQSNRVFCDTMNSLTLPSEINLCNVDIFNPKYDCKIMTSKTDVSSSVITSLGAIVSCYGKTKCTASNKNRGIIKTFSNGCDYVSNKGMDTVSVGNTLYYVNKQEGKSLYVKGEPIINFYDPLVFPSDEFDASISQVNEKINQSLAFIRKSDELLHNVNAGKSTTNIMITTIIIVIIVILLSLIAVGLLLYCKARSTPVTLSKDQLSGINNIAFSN
T3 sequence (P03420 26-109): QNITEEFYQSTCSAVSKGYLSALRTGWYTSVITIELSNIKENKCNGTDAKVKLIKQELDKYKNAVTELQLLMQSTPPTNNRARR

CSCC[C@@H](NC(=O)[C@@H](CO)NC(=O)CNC(=O)[C@@H](CC(=O)O)NC(=O)[C@@H](CC(=O)O)NC(=O)CCOCCOCCOCCOCCOCCOCCNC(=O)[C@@H](CCCCN)NC(C)=O)C(=O)N[C@@H]1CSSC[C@H](C(=O)NCC(=O)N[C@@H](C(N)=O)[C@H](C)O)NC(=O)[C@@H](Cc2c[nH]c3ccccc23)NC(=O)[C@@H](CC(=O)O)NC(=O)[C@@H](CC(C)C)NC(=O)[C@@H](CC(C)C)NC(=O)[C@@H](Cc2c[nH]c3ccccc23)NC(=O)[C@@H](CCC(=O)O)NC(=O)[C@H]2CCCN2C(=O)[C@@H](CCCNC(=N)N)NC(=O)[C@@H](CC(N)=O)NC(=O)[C@@H](C(C)C)NC1=O [Ac-K(PEG6)DDG-RSVP24] (Ac-[dK][PEG6][dD][dD]G[dS][dM][dC][dV][dN][dR][dP][dE][dW][dL][dL][dD][dW][dC]G[dT]-NH2; disulfide 8-19) gave a Kd (RSV-B/IZN45; synthesized peptide, RSV-B/IZN45, KD determined by SPR) of 1800 nM and a Kd (RSV-A/IZN45; Kd, synthesized peptide, RSV-A/IZN45, KD determined by SPR) of 2100 nM.

With CC(=O)N[C@H](CCCCN)C(=O)NCC(=O)NCC(=O)N[C@H](C)C(=O)N[C@@H]1CSSC[C@H](C(=O)N[C@H](C)C(=O)N[C@H](C)C(N)=O)NC(=O)[C@@H](Cc2c[nH]c3ccccc23)NC(=O)[C@@H](CC(=O)O)NC(=O)[C@@H](CC(C)C)NC(=O)[C@@H](CC(C)C)NC(=O)[C@@H](Cc2c[nH]c3ccccc23)NC(=O)[C@@H](Cc2c[nH]cn2)NC(=O)[C@H]2CCCN2C(=O)[C@@H](CCC(=O)O)NC(=O)[C@@H](CC(N)=O)NC(=O)[C@@H](CCCNC(=N)N)NC1=O [Ac-KG-RSVP20] (Ac-[dK]GG[dA][dC][dR][dN][dE][dP][dH][dW][dL][dL][dD][dW][dC][dA][dA]-NH2; disulfide 5-16) the IC50 (RSV-A F protein; IC50, synthesized peptide, syncytia reduction assay using RSV-A F protein) was 673000 nM.

Compound “(biotin-PEG2)GKG-IKKEIEAIKKEQEAIKKKIEALEGEVNKIKSALLSTNKAVVSLSNGVSVLTSKVLDLKNYIDKQLLPIV-NH2 [(Biotin-PEG2)GKG-RSVA IZN48]” has an IC50 (RSV-A F protein; [2]) of 215 nM.

In the case of “Ac-GECVN(HRG)PEWLLDWCGT-NH2 [SEQ ID NO: 147]”, the “Decreased potency compared to RSVP32” value [1] is reported as 2.6-fold compared and the potency [1] is reported as 65 nM.

In the case of “Ac-GECVNQPEWLLDWCGT-NH2 [SEQ ID NO: 151]”, the “Decreased potency compared to RSVP32” value [1] is reported as ~2-fold compared and the potency [1] is reported as 53 nM.

In the case of Ac-GEVCRPEWLLDWCGT-NH2 [SEQ ID NO: 159], the “Decreased potency compared to RSVP32” value [1] is reported as 14.4-fold and the potency [1] is reported as 360 nM.

“Ac-IKKEIEAIKKEQEAIKKKIEAIEKEVNKIKSALLSTNKAVVSLSNGVSVLTSKVLDLKNYIDKQLLPIV-NH2 [Ac-RSV-A IZN45]” gave an IC50 (RSV-A F protein; [3]) of 6 nM.

GECVNRPEWLLDWCGT [RSVP32] gave a potency [1] of 25 nM.

For “H-YGFDASISQVNEKINQSLAFIRKSDELLHNVNAGKST-NH2 [YG-T118]”, the IC50 (RSV-A F protein; [3]) was 8000 nM.

With “I: Ac-YGFDASISQVNEKINQSLAFIRKSDELLHNVNAGKSTG[PEG6]KGKG-NH2 / II: Ac-YGFDASISQVNEKINQSLAFIRKSDELLHNVNAGKSTG[PEG6] / III: Ac-YGFDASISQVNEKINQSLAFIRKSDELLHNVNAGKSTG[PEG6] (amide I:40-II:C, I:42-III:C) [YG-T118-Tricasso]” the IC50 (RSV-A F protein; [3]) was 650 nM.

“I: Ac-[dI][dS][dL][dP][dT][dP][dT][dW][dW][dP][dS][dT]GG[PEG6][dK]-NH2 / II: Ac-[dI][dS][dL][dP][dT][dP][dT][dW][dW][dP][dS][dT]GG[PEG6][dK]-NH2 / III: Ac-[dI][dS][dL][dP][dT][dP][dT][dW][dW][dP][dS][dT]GG[PEG6][dK]-NH2 (linker I:16-II:16-III:16 via X2; C-terminus assumed) [Ac-X12-45-GG(PEG6)K-trimer]” gave a Kd (RSV-B/IZN45; FIG. 10B, RSV-B version of IZN45) of 66 nM, a Kd (RSV-A/IZN45; KD, FIG. 10A, RSV-A version of IZN45) of 49 nM and a Kd (RSV-A/IZN45; [4]) of 53 nM.

“I: Ac-[dK][PEG6]G[dA][dC][dT][dN][dR][dA][dE][dW][dL][dI][dD][dW][dC][dA][dA]-NH2 / II: Ac-[dK][PEG6]G[dA][dC][dT][dN][dR][dA][dE][dW][dL][dI][dD][dW][dC][dA][dA]-NH2 / III: Ac-[dK][PEG6]G[dA][dC][dT][dN][dR][dA][dE][dW][dL][dI][dD][dW][dC][dA][dA]-NH2 (linker I:1-II:1-III:1 via X1; disulfide I:5-I:16, II:5-II:16, III:5-III:16; C-terminus assumed) [Ac-K(PEG6)-RSVP21-trimer]” showed a Kd (RSV-B/IZN45; subsequent trimer/compound made from peptide, RSV-B/IZN45, SPR) of 1.8 nM and a Kd (RSV-A/IZN45; [4]) of 0.3 nM.

“I: Ac-[dK][PEG6]G[dH][dA][dC][dV][dN][dR][dP][dE][dW][dL][dL][dD][dW][dC]G[dR]G[dR][dR]-NH2 / II: Ac-[dK][PEG6]G[dH][dA][dC][dV][dN][dR][dP][dE][dW][dL][dL][dD][dW][dC]G[dR]G[dR][dR]-NH2 / III: Ac-[dK][PEG6]G[dH][dA][dC][dV][dN][dR][dP][dE][dW][dL][dL][dD][dW][dC]G[dR]G[dR][dR]-NH2 (linker I:1-II:1-III:1 via X1; disulfide I:6-I:17, II:6-II:17, III:6-III:17) [Ac-K(PEG6)G-RSVP26-GRR-trimer]” showed an IC50 (RSV-A F protein; [5]) of 5500 nM.

In the case of “I: Ac-[dK][PEG6][dD][dD]G[dS][dM][dC][dV][dN][dR][dP][dE][dW][dL][dL][dD][dW][dC]G[dT]-NH2 / II: Ac-[dK][PEG6][dD][dD]G[dS][dM][dC][dV][dN][dR][dP][dE][dW][dL][dL][dD][dW][dC]G[dT]-NH2 / III: Ac-[dK][PEG6][dD][dD]G[dS][dM][dC][dV][dN][dR][dP][dE][dW][dL][dL][dD][dW][dC]G[dT]-NH2 (linker I:1-II:1-III:1 via X1; disulfide I:8-I:19, II:8-II:19, III:8-III:19) [Ac-K(PEG6)DDG-RSVP24-trimer]”, the IC50 (RSV-A F protein; [5]) is reported as 5500 nM.

“I: Ac-[dS][dM][dC][dV][dN][dR][dP][dE][dW][dL][dL][dD][dW][dC]G[dT]G[dD][dD][PEG6][dK]-NH2 / II: Ac-[dS][dM][dC][dV][dN][dR][dP][dE][dW][dL][dL][dD][dW][dC]G[dT]G[dD][dD][PEG6][dK]-NH2 / III: Ac-[dS][dM][dC][dV][dN][dR][dP][dE][dW][dL][dL][dD][dW][dC]G[dT]G[dD][dD][PEG6][dK]-NH2 (disulfide I:3-I:14, II:3-II:14, III:3-III:14; linker I:21-II:21-III:21 via X1; C-terminus assumed) [Ac-RSVP24-GDD(PEG6)K-trimer]” showed an IC50 (RSV-A F protein; [5]) of 4600 nM.

“LEGEVNKIKSALLSTNKAVVSLSNGVSVLTSKVLDLKNYIDKQLLPIVNIKKEIEAIKKEQEAIKKKIEAI-GKG-(Glu-biotinyl-PEG)-NH2 [RSVA N49IZ-GKG(Glu-Biotinyl-PEG)]” gave an IC50 (RSV-A F protein; [2]) of 102 nM.
